Results on three compounds are retold here after ChEMBL document CHEMBL5038586, “Thiazolidinedione "Magic Bullets" Simultaneously Targeting PPARγ and HDACs: Design, Synthesis, and Investigations of their In Vitro and In Vivo Antitumor Effects” (J Med Chem, 2021).

Active and inactive are the calls of the source. The calls are words filed in the database; no cut-off is given here.

Series [1] concerns the target T1, Histone deacetylase 4 (Homo sapiens, UniProt P56524). Nature of the series: Inhibition of recombinant human HDAC4 using Boc-Lys (trifluoroacetyl)-AMC as substrate ay 35 uM preincubated for 1 hr followed by substrate addition and measured after 1 hr by micro plate reader analysis.
Series [2] concerns the target T1, Histone deacetylase 4. Nature of the series: Inhibition of recombinant human HDAC4 using Boc-Lys (trifluoroacetyl)-AMC as substrate preincubated for 1 hr followed by substrate addition and measured after 1 hr by micro plate reader analysis.
Series [3] has as its target T2, Histone deacetylase 8 (Homo sapiens) (UniProt Q9BY41).
T2 sequence (whole entry): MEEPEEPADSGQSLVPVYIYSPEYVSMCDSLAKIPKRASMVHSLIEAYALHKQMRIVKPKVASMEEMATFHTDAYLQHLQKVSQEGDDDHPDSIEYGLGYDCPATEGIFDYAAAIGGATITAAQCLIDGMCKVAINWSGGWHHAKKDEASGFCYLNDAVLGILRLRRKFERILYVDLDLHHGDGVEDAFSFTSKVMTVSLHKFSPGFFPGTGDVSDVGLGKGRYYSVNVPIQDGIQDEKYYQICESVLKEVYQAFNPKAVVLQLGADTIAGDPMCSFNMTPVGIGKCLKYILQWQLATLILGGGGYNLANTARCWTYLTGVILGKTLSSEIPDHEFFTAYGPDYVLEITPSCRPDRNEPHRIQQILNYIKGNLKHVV
Nature of the series: Inhibition of recombinant human HDAC8 using Boc-Lys (trifluoroacetyl)-AMC as substrate ay 35 uM preincubated for 1 hr followed by substrate addition and measured after 1 hr by micro plate reader analysis.

For series [4], the system named is Ramos. Nature of the series: Cytotoxicity against human Ramos cells assessed as cell death incubated at 10 uM for 20 hrs measured by DNS assay. In kind it is functional.
The nature of series [5]: Selectivity index, ratio of CC50 for human HS-27 cells to CC50 for human SH-SY5Y cells. In kind it is functional.
The subject of series [6] is SH-SY5Y. Nature of the series: Cytotoxicity against human SH-SY5Y cells assessed as cell death incubated for 20 hrs measured by DNS assay. The format is functional.
The subject of another series is HeLa. Nature of the series: Cytotoxicity against human HeLa cells assessed as cell death incubated for 20 hrs measured by DNS assay. The format is functional.
For another series, the system named is HL-60. Nature of the series: Cytotoxicity against human HL-60 cells assessed as cell death incubated at 10 uM for 20 hrs measured by DNS assay. In kind it is functional.
The target of the next series is T3, Histone deacetylase 8 (Homo sapiens, UniProt Q9BY41).
T3 sequence (Q9BY41 whole entry): T2 sequence (whole entry)
Nature of the series: Inhibition of recombinant human HDAC8 using Boc-Lys (trifluoroacetyl)-AMC as substrate preincubated for 1 hr followed by substrate addition and measured after 1 hr by micro plate reader analysis.

Series [7] deals with MDA-MB-231. Nature of the series: Cytotoxicity against human MDA-MB-231 cells assessed as cell death incubated at 10 uM for 20 hrs measured by DNS assay. In kind it is functional.
Series [8] can be described thus: Selectivity index, ratio of CC50 for human HS-27 cells to CC50 for human MDA-MB-231 cells. The format is functional.
In series [9] the test system is CCRF-CEM. Nature of the series: Cytotoxicity against human CEM cells assessed as cell death incubated at 10 uM for 20 hrs measured by DNS assay. In kind it is functional.
Series [10] has as its system SH-SY5Y. Nature of the series: Cytotoxicity against human SH-SY5Y cells assessed as cell death incubated at 10 uM for 20 hrs measured by DNS assay. In kind it is functional.
Series [11] has as its system Ramos. Nature of the series: Cytotoxicity against human Ramos cells assessed as cell death incubated for 20 hrs measured by DNS assay. In kind it is functional.
Series [12] in a line: Selectivity index, ratio of CC50 for human HS-27 cells to CC50 for human Ramos cells. The format is functional.
Series [13] relates to MDA-MB-231. Nature of the series: Cytotoxicity against human MDA-MB-231 cells assessed as cell death incubated for 20 hrs measured by DNS assay. In kind it is functional.
Series [14] can be described thus: Selectivity index, ratio of CC50 for human HS-27 cells to CC50 for human HeLa cells. The format is functional.
Series [15] in a line: Toxicity in SCID mouse xenografted with human CEM cells assessed as effect on body weight at 20 mg/kg, ip. Particulars: in vivo. The format is organism-based, CCRF-CEM. Background: In xenograft studies the graft and the host belong to different species.
Series [16] in a line: Toxicity in SCID mouse xenografted with human CEM cells assessed as behavioral changes at 50 mg/kg, ip. The format is organism-based, CCRF-CEM. As to conditions: in vivo.
Series [17] can be described thus: Toxicity in SCID mouse xenografted with human CEM cells assessed as effect on body weight at 50 mg/kg, ip. The format is organism-based, CCRF-CEM. As to conditions: in vivo.
A further series concerns HS27. Nature of the series: Cytotoxicity against human HS-27 cells assessed as cell death incubated for 20 hrs measured by DNS assay. The format is toxicity, cell-based. Particulars: hs27, 20 h.
The subject of series [18] is CCRF-CEM. Nature of the series: Cytotoxicity against human CEM cells assessed as cell death incubated for 20 hrs measured by DNS assay. In kind it is functional.

T1 sequence (P56524 whole entry): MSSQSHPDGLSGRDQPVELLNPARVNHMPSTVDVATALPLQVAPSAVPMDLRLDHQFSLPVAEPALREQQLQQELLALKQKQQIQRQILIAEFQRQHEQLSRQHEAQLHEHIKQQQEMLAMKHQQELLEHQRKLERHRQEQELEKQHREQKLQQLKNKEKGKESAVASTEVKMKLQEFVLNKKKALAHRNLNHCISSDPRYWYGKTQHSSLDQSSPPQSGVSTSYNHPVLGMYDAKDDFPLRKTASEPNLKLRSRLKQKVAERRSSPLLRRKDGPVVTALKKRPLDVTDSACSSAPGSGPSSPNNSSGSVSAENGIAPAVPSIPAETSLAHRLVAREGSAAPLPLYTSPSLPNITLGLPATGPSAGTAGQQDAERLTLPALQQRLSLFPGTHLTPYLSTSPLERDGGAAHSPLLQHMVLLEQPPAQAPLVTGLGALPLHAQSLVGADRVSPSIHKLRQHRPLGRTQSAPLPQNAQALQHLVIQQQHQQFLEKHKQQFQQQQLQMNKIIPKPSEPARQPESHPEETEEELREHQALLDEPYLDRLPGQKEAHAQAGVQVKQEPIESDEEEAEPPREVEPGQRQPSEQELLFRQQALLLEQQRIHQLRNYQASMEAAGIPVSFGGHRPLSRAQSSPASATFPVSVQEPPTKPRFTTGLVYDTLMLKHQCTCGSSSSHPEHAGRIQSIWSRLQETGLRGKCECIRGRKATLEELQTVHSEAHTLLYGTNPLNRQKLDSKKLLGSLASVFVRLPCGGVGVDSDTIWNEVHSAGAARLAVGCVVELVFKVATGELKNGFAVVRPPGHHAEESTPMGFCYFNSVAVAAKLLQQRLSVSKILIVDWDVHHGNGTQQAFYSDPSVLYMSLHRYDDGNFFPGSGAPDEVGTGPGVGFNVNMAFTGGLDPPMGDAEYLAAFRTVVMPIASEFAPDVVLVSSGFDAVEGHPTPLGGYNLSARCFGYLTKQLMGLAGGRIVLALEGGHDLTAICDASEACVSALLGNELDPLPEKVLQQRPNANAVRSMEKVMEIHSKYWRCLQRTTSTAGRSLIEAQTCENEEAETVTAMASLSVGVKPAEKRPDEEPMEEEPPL

A word on the IC50: it is the point on the concentration scale where inhibition reaches its midpoint. One may read the CC50 as the concentration at which the toxic effect on the cells reaches its halfway point. For the compound `O=C(COc1ccc2cc(/C=C3/SC(=O)NC3=O)ccc2c1)Nc1ccccc1Oc1ccccc1`, the inhibition result (on Histone deacetylase 4 [1]; in series [3]) was “Active” in each case. Also, the half-maximal inhibitory concentration (IC50) is 5.2 µM at Histone deacetylase 4 [2] and more than 50 µM at Histone deacetylase 8. For the same compound, the Activity in the series on Ramos [4] is given as more than 40%; with HL-60 it was 0%; in the series on MDA-MB-231 [7] it was more than 40%; with CCRF-CEM [9], 40.24%; with SH-SY5Y [10], more than 40%. In addition, the “Selectivity Index” value in series [5], in series [8], in series [12] and in [14] was more than 10 each time. Also, the cytotoxic concentration (CC50) was 52.3 µM in the series on SH-SY5Y [6], 10.2 µM with HeLa, 10 µM in the series on Ramos [11] and 10.3 µM with MDA-MB-231 [13].
Take `COc1cccc2c1C(=O)c1c(O)c3c(c(O)c1C2=O)C[C@@](O)(C(=O)CO)C[C@@H]3O[C@H]1C[C@H](N)[C@H](O)[C@H](C)O1` [DOXORUBICIN]: the Activity result in series [15] is listed as “Non-Toxic”.
In the case of `Cc1ccc(NC(=O)COc2ccc3cc(/C=C4/SC(=O)NC4=O)ccc3c2)cc1`, the IC50 came to 1.7 µM at Histone deacetylase 4 [2] and 9 µM on Histone deacetylase 8. In addition, the Activity entry in series [16] and in series [17] was “Non-Toxic” in each case. The CC50 worked out at 49.5 µM with SH-SY5Y [6]; 10.3 µM in the series with HeLa; 7 µM in the series with Ramos [11]; 40.2 µM in the series on HS27; 2.8 µM with CCRF-CEM [18].
